The results in this text go back to BindingDB's records for doi:10.1016/j.bmc.2010.05.071 (University of Innsbruck and Center For Molecular …, 2010).

The assay has as its target Acetylcholinesterase (Electrophorus electricus, UniProt O42275). In words: Inhibition of electric eel AChE by Ellman's method. (DTNB colorimetry detects thiols as they appear.)

pIC50: −log10 of the molar value.

In general, pIC50 refers to the IC50 on a negative log10 scale, so that one unit is a factor of ten. Low readings indicate a high IC50, high ones a low IC50.

Chain of Acetylcholinesterase (O42275 whole entry): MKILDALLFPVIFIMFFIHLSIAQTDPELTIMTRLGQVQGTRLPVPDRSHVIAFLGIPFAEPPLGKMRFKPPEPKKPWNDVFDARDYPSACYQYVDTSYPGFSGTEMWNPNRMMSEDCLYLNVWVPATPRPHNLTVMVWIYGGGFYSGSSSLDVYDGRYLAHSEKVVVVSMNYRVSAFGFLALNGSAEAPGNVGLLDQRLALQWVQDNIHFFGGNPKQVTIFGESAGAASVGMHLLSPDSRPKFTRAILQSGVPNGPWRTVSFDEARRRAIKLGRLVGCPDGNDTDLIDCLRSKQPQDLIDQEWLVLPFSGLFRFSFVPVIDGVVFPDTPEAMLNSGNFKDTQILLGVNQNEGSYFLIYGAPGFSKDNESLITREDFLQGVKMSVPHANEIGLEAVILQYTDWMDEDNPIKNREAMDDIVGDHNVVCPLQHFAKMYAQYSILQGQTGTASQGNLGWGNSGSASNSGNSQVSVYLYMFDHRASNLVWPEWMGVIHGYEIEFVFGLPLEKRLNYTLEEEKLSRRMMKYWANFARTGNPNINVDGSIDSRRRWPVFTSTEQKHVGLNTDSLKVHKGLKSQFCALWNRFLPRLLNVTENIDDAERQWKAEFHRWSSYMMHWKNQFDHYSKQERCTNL

For `O=CN1CC[C@]23CC(=O)CC[C@H]2[C@H]1Cc1c(O)ccc(O)c13`, the pIC50 was 4.90.
